Source: ChEMBL document CHEMBL3352745, “Serotonin 5-HT6 receptor antagonists for the treatment of cognitive deficiency in Alzheimer's disease” (J Med Chem, 2014)

System: not listed separately
Assay: Oral bioavailability in rat
Assay type: ADME, organism-based
Settings: in vivo

Row | Compound | bioavailability [%]
1 | O=S(=O)(c1ccccc1)c1cnc2c(N3CCNCC3)cccc2c1 [INTEPIRDINE] | 76
2 | CN1CC=C(c2cn(S(=O)(=O)c3cccc4ccccc34)c3ccc(F)cc23)CC1 | 19
3 | CN1CCC[C@@H]1Cc1cn(S(=O)(=O)c2ccccc2)c2ccc(Cl)cc12 | 17
4 | COc1ccc(NS(=O)(=O)c2sc3ccc(Cl)cc3c2C)cc1N1CCNCC1 | > 80

System: not listed separately
Assay: Ratio of drug level in brain to plasma in rat
Assay type: ADME
Settings: brain and plasma, read-out: BPR

Row | Compound | Kp
5 | CN1CC=C(c2cn(S(=O)(=O)c3cccc4ccccc34)c3ccc(F)cc23)CC1 | 43
6 | CN1CCC[C@@H]1Cc1cn(S(=O)(=O)c2ccccc2)c2ccc(Cl)cc12 | 23

Target: T1, 5-hydroxytryptamine receptor 6 (Homo sapiens, UniProt P50406)
T1 sequence (P50406 whole entry): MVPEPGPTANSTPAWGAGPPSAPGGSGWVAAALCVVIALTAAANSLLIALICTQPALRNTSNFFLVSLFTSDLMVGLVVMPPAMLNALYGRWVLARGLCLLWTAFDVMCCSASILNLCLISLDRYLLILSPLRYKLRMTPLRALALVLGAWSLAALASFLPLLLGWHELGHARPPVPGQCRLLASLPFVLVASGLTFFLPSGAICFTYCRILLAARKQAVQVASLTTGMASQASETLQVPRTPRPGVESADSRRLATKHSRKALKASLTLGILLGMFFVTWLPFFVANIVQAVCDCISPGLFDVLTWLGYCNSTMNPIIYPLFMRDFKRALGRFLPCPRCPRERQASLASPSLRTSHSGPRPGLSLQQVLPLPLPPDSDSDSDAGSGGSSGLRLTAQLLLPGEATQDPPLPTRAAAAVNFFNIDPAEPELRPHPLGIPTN
Assay: Antagonist activity at human recombinant 5HT6 receptor expressed in CHO cells
Assay type: cell-based
Settings: not given

Row | Compound | Ki [nM]
7 | COc1ccc(NS(=O)(=O)c2ccc(I)cc2)cc1N1CCNCC1 | 2.3
8 | COc1ccc(C)cc1S(=O)(=O)Nc1cc(OC2CCNCC2)c2occc2c1 | 1.2
9 | O=S(=O)(c1cccc(Cl)c1Cl)N1CCc2c(cccc2N2CCNCC2)C1 | 0.04
10 | CN1CCCC1Cc1c[nH]c2ccc(OC3CCCCC3)cc12 (stereo unspecified) | 0.93
11 | O=c1[nH]c2c(N3CCNCC3)cccc2n1Cc1ccccc1 | 0.3
12 | CSc1nn2c(N3CCNCC3)nc(C)nc2c1S(=O)(=O)c1ccccc1 | 1.2
13 | O=S(=O)(c1ccccc1)c1ccc(C2CCNCC2)c2ccccc12 | 3.8
14 | N=C(N)CCC1CCCc2cc(S(=O)(=O)c3ccccc3)ccc21 (stereo unspecified) | 59
15 | Fc1ccc2c(c1)c(C1=CCNCC1)cn2Cc1ccccc1 | 10
16 | CN1CCN(c2cccc3c(S(=O)(=O)c4ccccc4)c[nH]c23)CC1 | 0.5
17 | COc1cc(N2CCNCC2)c2ncc(C)c(Oc3ccccc3)c2c1 | 1
18 | O=S(=O)(c1ccccc1)c1ccc2c(c1)OCCC2N1CCNCC1 (stereo unspecified) | 0.4
19 | CN1CC=C(c2cn(S(=O)(=O)c3cccc4ccccc34)c3ccc(F)cc23)CC1 | 1
20 | O=C(c1ccccc1)n1cc(C2=CCNCC2)c2cc(F)ccc21 | 99
21 | O=c1n(C2=CCNCC2)c2ccccc2n1S(=O)(=O)c1ccc2ccccc2c1 | 5.7
22 | CNC[C@@H]1COc2ccc(S(=O)(=O)c3ccccc3)cc2O1 | 0.2
23 | COc1ccc(Cl)cc1NS(=O)(=O)c1ccc(OC)c2c1CC[C@H](N(C)C)C2 | 1.7
24 | Cc1c(S(=O)(=O)Nc2cc3c(c(N4CCN(C)CC4)c2)OCC3)sc2ccc(Cl)cc12 | 1.6
25 | O=C1c2cccc(N3CCNCC3)c2Oc2ccc(F)cc2N1Cc1cccc(C(F)(F)F)c1 | 0.3
26 | CC(Nc1ccc2c(c1)CCNCC2)c1ccccc1Cl (stereo unspecified) | 14
27 | CN1CC2c3ccccc3Oc3ccc(Cl)cc3C2C1 (stereo unspecified) [ASENAPINE] | 0.25
28 | O=S(=O)(c1cccc(F)c1)c1c[nH]c2c(OCCN3CCCC3)cccc12 | 20
29 | Clc1ccc(-c2[nH]c3ccccc3c2/C=N/NC2=NCCN2)cc1 | 10
30 | Cc1cc(C)cc(S(=O)(=O)c2ccc3ccnc(N4CCNCC4)c3c2)c1 | 11
31 | O=C1COc2c(N3CCNCC3)cccc2N1Cc1ccccc1 | 0.2
32 | CN1CCC(c2cn(C)c3cc(OS(=O)(=O)c4c(F)cccc4F)ccc23)CC1 | 1
33 | O=C(Nc1ccccc1)n1cc(C2=CCNCC2)c2cc(F)ccc21 | 118
34 | O=S(=O)(c1cccc(Cl)c1)n1ccc2c(N3CCNCC3)c(Cl)ccc21 | 0.3
35 | O=S(=O)(Nc1ccc2c(c1)CNCCC2)c1csc(C(F)(F)F)c1-c1ccccc1 | 32
36 | COc1cc(Cn2c(=O)ccc3cccc(OC)c32)cc(N2CCNCC2)c1 | 0.9

Target: T1, 5-hydroxytryptamine receptor 6
Assay: Inhibition of human recombinant 5HT6 receptor expressed in CHO cells
Assay type: cell-based
Settings: not given

Row | Compound | IC50 [nM]
37 | Nc1ccc(S(=O)(=O)c2cc(Br)nc(N3CCCC3)c2)cc1 | 3.2
38 | CN1CC=C(c2cn(S(=O)(=O)c3cccc4ccccc34)c3ccc(F)cc23)CC1 | 24
39 | CN1CCC[C@@H]1Cc1cn(S(=O)(=O)c2ccccc2)c2ccc(Cl)cc12 | 8.5
40 | COc1ccc(NS(=O)(=O)c2ccc(Br)cc2)cc1N1CCN(C)CC1 | 16

System: not listed separately
Assay: Half life in rat
Assay type: ADME, organism-based
Settings: in vivo

Row | Compound | half-life [h]
41 | COc1ccc(NS(=O)(=O)c2sc3ccc(Cl)cc3c2C)cc1N1CCNCC1 | 4.8
